Usually Kd stands for the constant that tells how readily two partners part at equilibrium.

Ends that are not written are not given here.

One data set relates to HCT116 cells. Nature of the data set: MTT assay. Type of data set: cell-based, human. The conditions noted are these: 50 nM peptide. Here is the method: (§1) Cell proliferation was measured by a colorimetric assay using 3-(4,5-dimethythiazol-2-yl) 2,5-diphenyltetrazolium bromide (MTT; Amresco, Solon, OH, USA) according to the manufacturer’s instructions. Briefly, cells were harvested with 0.05% trypsin/EDTA and seeded to 48-well plates (Thermo Fisher Scientific). After cells were allowed to attach to the plate for 24 h, medium containing 0.5 mg/mL MTT was added to each plate and incubation was continued for 1 h. The medium was then removed, and 200 μL of dimethyl sulfoxide (DMSO) was added to each plate for 30 min at room temperature. The mean concentration of absorbance at 570 nm in each set of samples was measured using a 96-well microtiter plate reader (Dynatech, Chantilly, VA, USA).

The subject of the next data set is HT29-SDC2 cells. In words: MTT assay. The format is cell-based, human. Conditions: 50 nM, up to 48 h. Here is the method:
as §1
On the technique in general: Tetrazolium dyes change colour on reduction, which living cells bring about.

Data set [1] has as its target T1, pro-domain of MMP-7 (PDMMP-7) (Homo sapiens, UniProt P09237).
T1 construct: TRX-His tag (N, cleaved yes); made in house
T1 sequence (P09237 18-94 limits assumed): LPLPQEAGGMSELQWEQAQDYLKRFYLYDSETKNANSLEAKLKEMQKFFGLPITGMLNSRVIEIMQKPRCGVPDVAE
Nature of the data set: Fluorescence titration of peptides against MMP-7 pro-domain. Conditions: fluorescence spectroscopy; for Kd: ex 280 nm, em 347 nm, 10 μM PDMMP-7, peptide titrated up to 1:80, PBS pH 7.4, 25 °C. The format is binding. Here is the method: The gene encoding the pro-domain sequence (PDMMP-7) was cloned into the pET32a vector, which has a TRX-His tag at the N-terminus, for protein expression and purification. Between the TRX-His tag and the pro-domain, a TEV cleavage sequence was inserted. Proteins were overexpressed with 1 mM IPTG and isolated using Ni-NTA affinity chromatography. The purified TRX-His tag-PDMMP-7 was incubated with TEV protease at a 1:1 molar ratio for 12 h. The reaction mixture was further purified in phosphate-buffered saline (PBS) buffer at pH 7.4 using a HiLoad^TM superdex^TM 75 column (GE Healthcare, Little Chalfont, UK) to remove tags. The final protein sample was concentrated to 14 mg/mL for the fluorescence experiment.
The binding affinity between the PDMMP-7 and each synthetic peptide was measured at 298 K (25 °C) using an LS55 fluorescence spectrophotometer (Perkin Elmer, Waltham, MA, USA) at wavelengths of 280 nm (excitation) and 300–450 nm (emission). PDMMP-7 and peptides were prepared in phosphate-buffered saline (PBS) buffer at pH 7.4. The concentration of PDMMP-7 was set at 10 μM, and the input amount of each peptide versus PDMMP-7 was titrated at a molar ratio up to 1:80 using a thermostat cuvette. The dissociation constant (Kd) of the PDMMP-7/peptide complex was calculated using the equation log[(Fo − F)/F] = log(1/Kd) + nlog[ligand], where Fo and F represent the fluorescence intensity of PDMMP-7 at 347 nm in the absence and presence of the peptide, respectively, and n represents the number of binding sites.

Another data set deals with MMPs. The arrangement: method as in PMID 29735645, PMID 9484924, PMID 10100701, PMID 12085177. Conditions: batimastat phase I, marimastat phase III; cited from earlier work.
For data set [2], the target named is T2, pro-domain of matrix metalloproteinase-7 (MMP-7).
T2 sequence (P09237 whole entry, species assumed, looked up): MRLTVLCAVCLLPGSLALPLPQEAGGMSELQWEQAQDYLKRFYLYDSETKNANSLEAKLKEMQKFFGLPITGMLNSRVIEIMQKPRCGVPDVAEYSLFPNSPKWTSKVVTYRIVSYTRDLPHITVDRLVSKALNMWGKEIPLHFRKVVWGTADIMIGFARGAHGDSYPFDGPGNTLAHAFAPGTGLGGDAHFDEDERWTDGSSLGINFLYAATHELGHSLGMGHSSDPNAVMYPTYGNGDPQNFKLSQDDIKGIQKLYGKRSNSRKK
Nature of the data set: other fluorescence titration; intrinsic fluorescence of PDMMP-7 (10 μM; excitation 280 nm, emission 300-450 nm, read at 347 nm), peptide titrated up to a molar ratio of 1:80, PBS pH 7.4, 298 K (25 °C).

For SGVYPIDDFDYESASGSGAD [S2-FE], the “cytotoxicity in HCT116 cells” value with HCT116 cells was “did not exert cytotoxicity”. Further, the “cytotoxicity against HT29-SDC2 cells” value in the data set on HT29-SDC2 cells is on record as “Neither peptide showed cytotoxicity”. In addition, in data set [1], the dissociation constant Kd amounted to 456 µM.

As to “SGVYPIDDLDYASASGSGAD [S2-L, modified SDC2-mimetic peptide derived from S2-P]”, in data set [1] (PBS pH 7.4, 25 °C), the “binding to the MMP-7 pro-domain compared to S2-P” value is reported as “reduced binding”.

In data set [1], SGVYPIDDDDYASASGSGAD [S2-P] showed a Kd of 1220 µM.

Turning to SGVYPIFDLDYDSASGSGAD [S2-FLD], the Kd in data set [1] came to 64 µM.

With SGVYPIDDDDYDSASGSGAD [S2-D], the “cytotoxicity in HCT116 cells” value with HCT116 cells was “did not exert cytotoxicity”. The “cytotoxicity against HT29-SDC2 cells” value in the data set with HT29-SDC2 cells is “Neither peptide showed cytotoxicity”. This molecule had a Kd in data set [1] of 550 µM.

In the case of `CNC(=O)[C@@H](NC(=O)[C@H](CC(C)C)[C@H](O)C(=O)NO)C(C)(C)C` [marimastat], the “side effects in clinical trials” value in the data set with MMPs is listed as “significant musculoskeletal toxicity”.

With SGVYPIDDDDYDSASGSGAD [S2-D, SDC2-mimetic peptide with an Ala-to-Asp substitution at the C-terminal side of Tyr 51], in data set [2], the Kd is 550 µM.

As for SGVYPIDDDDYASASGSGAD [S2-P, synthetic peptide corresponding to human SDC2 extracellular domain residues 41-60], the Kd in data set [2] came to 1220 µM.

SGVYPIDDFDYESASGSGAD [S2-FE, SDC2-mimetic peptide]: the dissociation constant Kd in data set [2] is 456 µM.

As for SGVYPIFDLDYDSASGSGAD [S2-FLD, SDC2-mimetic peptide], the Kd in data set [2] was determined as 64 µM.

Values taken from publication PMC9180903, “Substituted Syndecan-2-Derived Mimetic Peptides Show Improved Antitumor Activity over the Parent Syndecan-2-Derived Peptide” (International Journal of Molecular Sciences, 2022).
